Measured values reported in the NIST ThermoML archive (doi:10.1021/je030236t).

Columns and labels:
[1] = molar enthalpy of vaporization or sublimation; settings: 298.15 K; Liquid
[2] = Liquid

CCCCCCCCCCCCCCCCCCCCCCCCCCCCCCCC [dotriacontane]
Settings	molar enthalpy [kcal/mol]
[1]	38.8

[2]
Settings	vapor or sublimation pressure [kPa]
298.15 K	3.62e-12
310 K	4.33e-11
320 K	2.95e-10
330 K	1.74e-09
340 K	8.99e-09
350 K	4.12e-08
360 K	1.69e-07
370 K	6.31e-07
380 K	2.14e-06
390 K	6.71e-06
400 K	1.95e-05
410 K	5.27e-05
420 K	0.000134
430 K	0.000321
440 K	0.000729
450 K	0.00158
460 K	0.00325
470 K	0.00643
480 K	0.0122
490 K	0.0224
500 K	0.0398
510 K	0.0684
520 K	0.114
530 K	0.185
540 K	0.294
550 K	0.454
560 K	0.687
570 K	1.02
580 K	1.48

CCCCCCCCCCCCCCCCCCCCCCCCCCCCCCCCC [tritriacontane]
Settings	molar enthalpy [kcal/mol]
[1]	40.1

[2]
Settings	vapor or sublimation pressure [kPa]
298.15 K	1.19e-12
310 K	1.54e-11
320 K	1.11e-10
330 K	6.95e-10
340 K	3.79e-09
350 K	1.82e-08
360 K	7.83e-08
370 K	3.04e-07
380 K	1.07e-06
390 K	3.49e-06
400 K	1.05e-05
410 K	2.92e-05
420 K	7.65e-05
430 K	0.000189
440 K	0.000439
450 K	0.000972
460 K	0.00205
470 K	0.00415
480 K	0.00805
490 K	0.015
500 K	0.0272
510 K	0.0474
520 K	0.0804
530 K	0.133
540 K	0.213
550 K	0.334
560 K	0.511
570 K	0.767
580 K	1.13

CCCCCCCCCCCCCCCCCCCCCCCCCCCCCCCCCCCCC [heptatriacontane]
Settings	molar enthalpy [kcal/mol]
[1]	44.8

[2]
Settings	vapor or sublimation pressure [kPa]
298.15 K	1.49e-14
310 K	2.63e-13
320 K	2.43e-12
330 K	1.89e-11
340 K	1.26e-10
350 K	7.35e-10
360 K	3.77e-09
370 K	1.72e-08
380 K	7.09e-08
390 K	2.65e-07
400 K	9.09e-07
410 K	2.87e-06
420 K	8.43e-06
430 K	2.31e-05
440 K	5.96e-05
450 K	0.000145
460 K	0.000335
470 K	0.000735
480 K	0.00154
490 K	0.0031
500 K	0.006
510 K	0.0112
520 K	0.0202
530 K	0.0353
540 K	0.0598
550 K	0.0987
560 K	0.159
570 K	0.25
580 K	0.383

CCCCCCCCCCCCCCCCCCCCCCCCCCCCCCCCCCCCCC [octatriacontane]
Settings	molar enthalpy [kcal/mol]
[1]	46

[2]
Settings	vapor or sublimation pressure [kPa]
298.15 K	5.13e-15
310 K	9.81e-14
320 K	9.59e-13
330 K	7.88e-12
340 K	5.54e-11
350 K	3.38e-10
360 K	1.81e-09
370 K	8.6e-09
380 K	3.67e-08
390 K	1.42e-07
400 K	5.03e-07
410 K	1.64e-06
420 K	4.95e-06
430 K	1.39e-05
440 K	3.68e-05
450 K	9.16e-05
460 K	0.000216
470 K	0.000484
480 K	0.00104
490 K	0.00212
500 K	0.00417
510 K	0.00791
520 K	0.0145
530 K	0.0257
540 K	0.0441
550 K	0.0738
560 K	0.12
570 K	0.191
580 K	0.296
